Laboratory results as given in US9969755B2, “Photodynamic therapy photosensitizers” (The Royal Institution for the Advancement of …, priority 2016, dated 2018).
Values joined by “and” are separate entries in the source; they are usually repeats but may differ in a detail not shown here. Equal entries are not always repeated.

How the values were obtained:
Type in all cases: physicochemical
[1] = Absorption and steady-state fluorescence, fluorescence quantum yield in acetonitrile; conditions: for abs λmax / em λmax / Φf (fluorescence quantum yield) / ε (extinction coefficient): acetonitrile, room temperature; for drop in φf following inclusion of I or Br atoms: relative to unsubstituted analogue (1 for 3 and 4; 2 for 5 and 6)
Protocol: Absorption spectra were recorded using a Hitachi U-2800 UV-vis-NIR spectrophotometer. Luminescence spectra were recorded using a PTI QuantaMaster spectrofluorimeter using 10×10 mm quartz cuvettes and corrected for detector sensitivity.
The steady-state fluorescence spectra were recorded between 500-800 nm (depending on each compound) upon exciting at the wavelength of the absorbance maxima. The excitation and emission slits were tuned according to the fluorescence quantum yield of each BODIPY (i.e. for compound 7 excitation slits were 5 nm and for compound 4 we used 2 nm). Fluorescence was recorded every 1 nm using 0.1 s integration time. For the Fluorescence lifetime measurements, the excitation rate was 10 MHz, and the detection frequency was less than 100 kHz. Photons were collected at the magic angle. The fluorescence decay traces were fit using FluoFit (Picoquant) software. For steady-state and time-resolved fluorescence measurements a quartz cuvette with a 10 mm path length was used and all the solutions were prepared in air equilibrated acetonitrile.
Quantum yields of fluorescence were measured using PM605 in acetonitrile as a reference. Absorption and emission spectra of PM605 and the dye of interest were measured in acetonitrile at five different concentrations. The integrated intensity versus absorbance were then plotted and fitted linearly. Relative quantum yields of fluorescence for the unknown with respect to the standard were obtained from equation 1, where φ, Δ, and n refer, respectively, to the quantum yield, the slope obtained from the above-mentioned plot, and the solvent refractive index for the unknown (x) or standard (st).

[2] = Time-resolved fluorescence (fluorescence lifetime, TCSPC); conditions: for increase in kdec upon halogen substitution: 4 vs 1, 6 vs 2, 3 vs 1, 5 vs 2; for kdec (fluorescence decay rate constant) / knr (non-radiative decay rate constant, (1−φf)×kdec) / krad (radiative rate constant, φf×kdec): acetonitrile, room temperature
Protocol: Fluorescence lifetime measurements were carried out using a Picoquant Fluotime 200 time correlated single photon counting (TCSPC) setup employing an LDH-P-C-470 picosecond diode laser (Picoquant) with an excitation wavelength at 466 nm as the excitation source. The laser was controlled by a PDL 800 B picosecond laser driver from Picoquant. ^1HNMR spectra were recorded on a Bruker AV 400 instrument at 400 MHz. ^13CNMR spectra were recorder on a Varian VNMRS 500 instrument at 125 MHz. ESI mass spectra were measured on a Bruker maXis impact. Laser Flash Photolysis (LFP) experiments were carried out in a commercially available Luzchem 212 LFP setup provided with a Tektronix TDS 2000 digitizer for signal capture. A Nd:Yag laser (Continuum model Surelite I-10 using a second harmonic generators, model number SL-SHG-T1) was used for excitation at a wavelength of 532 nm. Phosphorescence experiments were recorded using a Cary Eclipse Fluorescence Spectrophotometer. Singlet Oxygen phosphorescence was recorded with a Hamamatsu NIR detector (peltier cooled at −62.8° C. operating at 800 V, coupled to a grating monochromator) upon excitation with a 532 nm Nd:YAG laser. A customized Luzchem Research LFP-111 system was employed to collect and process the data. The steady-state fluorescence spectra were recorded between 500-800 nm (depending on each compound) upon exciting at the wavelength of the absorbance maxima. The excitation and emission slits were tuned according to the fluorescence quantum yield of each BODIPY (i.e. for compound 7 excitation slits were 5 nm and for compound 4 we used 2 nm). Fluorescence was recorded every 1 nm using 0.1 s integration time. For the Fluorescence lifetime measurements, the excitation rate was 10 MHz, and the detection frequency was less than 100 kHz. Photons were collected at the magic angle. The fluorescence decay traces were fit using FluoFit (Picoquant) software. For steady-state and time-resolved fluorescence measurements a quartz cuvette with a 10 mm path length was used and all the solutions were prepared in air equilibrated acetonitrile.

[3] = Laser flash photolysis: triplet excited state decay and quenching; conditions: for kq (triplet quenching rate constant) Q = PMHC: Ar saturated acetonitrile; for Triplet decay rate constant kT: T-T absorption at 430 nm or 550 nm, argon saturated solutions; for kT (triplet decay rate constant) Air equilibrated / kT (triplet decay rate constant) Argon Purged / kq (triplet quenching rate constant) Q = ^3O2: acetonitrile; for kq (triplet quenching rate constant) Q = ^3O2: calculated with oxygen solubility 2.42 mM
Protocol: The 500 mJ/pulse laser output was attenuated yielding 10 mJ laser pulses of 6 ns in duration. Samples were prepared in acetonitrile. The final absorbance of the BODIPY dyes was 0.1. The concentration was kept low to avoid triplet-triplet annihilation. Each sample was de-oxygenated by purging with argon gas for at least 30 min. Quartz cells containing 10×10 mm path length were used. The decay of the BODIPYs was monitored between 420-440 and 520-550 nm (depending the BODIPY) following the laser excitation. Samples were irradiated with a total of 6 laser shots to acquire the temporal evolution of ΔOD.
A second layer of control was subsequently tested via LFP studies, to monitor the extent to which the trap segment deactivates the triplet excited state of the photosensitizes. […] The two quenchers emulate the trap segments utilized in 7 and 8, respectively.

[4] = Electrochemical studies (cyclic voltammetry); design: E^oB^+·/B (reversible oxidation potential): unit not given here; conditions: vs ferrocene, acetonitrile
Protocol: Electrochemical measurements were performed using a three-electrode system. The working electrode was a Pt wire, a Pt mesh wire was used as the counter electrode, and a Ag/AgCl electrode was used as the reference. A 0.1 M solution of tetrabutylammonium hexafluorophosphate in dry acetonitrile was used as the electrolyte solvent in which the compounds were dissolved to 1 mM or to saturation when the latter occurred before reaching a 1 mM concentration. Concentration was determined from their absorption and calculated extinction coefficient. Solutions also contained ferrocene with a concentration of 1 mM as an internal standard. The solutions were equilibrated with argon, and all measurements were conducted under inert atmosphere, with a minimum scan rate of 0.2 V s^−1. When the acquired cyclic voltammograms were not reversible the scan rate was increased up to 1 V s^−1. Formal redox potentials were calculated from the midpoint of the cathodic and anodic peak potentials observed in the cyclic voltammograms. All values were reported vs ferrocene, with the oxidation of ferrocene measured and corrected to zero for all experiments.

[5] = Phosphorescence studies at 77 K; design: unit not given beside the values; conditions: from phosphorescence emission spectra, 4:1 EtOH:MeOH
Protocol: Phosphorescence from compounds 3-6 was observed cooling a 4:1 EtOH:MeOH solution to 77 K with liquid nitrogen. Dilute sample solutions (Abs<0.1) were prepared in NMR tubes and suspended in a coldfinger Dewar (custom-made by Ace Glass) filled with liquid nitrogen.

[6] = Gibbs free energy for photoinduced electron transfer (equation 6); conditions: for ΔGeT (Singlet), Gibbs free energy for PeT: PeT from chromanol to singlet excited state; for ΔGeT (Triplet), Gibbs free energy for PeT: PeT from chromanol to triplet excited state, endergonic
From the text: Consistent with quenching of the singlet via PeT from the chromanol segment, the Gibbs free energy for photoinduced electron transfer (ΔGeT^0) was exergonic for compounds 7 and 8, in the range of 0.4 eV (see Table 3).
Based on these calculations ΔGeT^0 for PeT from the chromanol to the triplet excited state of 3-6 was endergonic, ca. 0.27 eV, accounting for the small intermolecular rate constant of quenching measured for these compounds in the presence of either PMHC or trolox, and for the long triplet decay rate constant kT recorded for compound 8. Importantly, the efficiency of PeT also relies in the distance between the trap segment and the photosensitizers a factor that may additionally contribute to the differences observed between compound 7 (methylene linker) and compound 8 (ester linker).

| Compound | E00 (HOMO-LUMO gap from intercept of normalized absorption and emission spectra) [1] [eV] | abs λmax [1] [nm] | em λmax [1] [nm] | Φf (fluorescence quantum yield) [1] | ε (extinction coefficient) [1] [M⁻¹ cm⁻¹] | drop in φf following inclusion of I or Br atoms [1] | increase in kdec upon halogen substitution [2] | kdec (fluorescence decay rate constant) [2] | knr (non-radiative decay rate constant, (1−φf)×kdec) [2] | krad (radiative rate constant, φf×kdec) [2] | kq (triplet quenching rate constant) Q = PMHC [3] | Triplet decay rate constant kT [3] [s⁻¹] | kT (triplet decay rate constant) Air equilibrated [3] | kT (triplet decay rate constant) Argon Purged [3] | kq (triplet quenching rate constant) Q = ^3O2 [3] | E^oB^+·/B (reversible oxidation potential) [4] | E^opc (cathodic peak potential) [4] | E (Triplet), energy of the lowest triplet state [5] | ΔGeT (Singlet), Gibbs free energy for PeT [6] [eV] | ΔGeT (Triplet), Gibbs free energy for PeT [6] [eV] | also measured |
| --- | --- | --- | --- | --- | --- | --- | --- | --- | --- | --- | --- | --- | --- | --- | --- | --- | --- | --- | --- | --- | --- |
| CC(=O)OCC1=C2C(C)=C(Br)C(C)=[N+]2[B-](F)(F)n2c(C)c(Br)c(C)c21 [Compound 6, 8-Acetoxymethyl-2,6-dibromo-1,3,5,7-tetramethyl Pyrromethene Fluoroborate] | 2.25 | 543 | 562 | 0.14 ± 0.02 | 81000 | ~6 fold | 4.5 fold | 66.7 ± 0.3 × 10^7 s^−1 | 57.4 ± 0.2 × 10^7 s^−1 | 9.3 ± 0.1 × 10^7 s^−1 | 2.23 ± 0.05 × 10^8 M^−1s^−1 | 27000 | 6.67 ± 0.04 × 10^6 s^−1 | 2.72 ± 0.03 × 10^4 s^−1 | 2.80 ± 0.02 × 10^9 M^−1s^−1 | 0.94 | −1.13 | 1.53 | −0.43 | 0.287 |  |
| CC1=C(Br)C(C)=[N+]2C1=C(CC1(C)CCc3c(C)c(O)c(C)c(C)c3O1)c1c(C)c(Br)c(C)n1[B-]2(F)F (stereo not drawn) [Compound 7, 8-((6-Hydroxy-2,5,7,8-tetramethylchroman-2-yl)-methyl)-2,6-dibromo-1,3,5,7-tetramethyl] |  | 532 | 557.4 |  | 56000 |  |  |  |  |  |  |  |  |  |  |  |  |  |  |  | drop in φf caused by the trap segment ([1]; 7 compared to reference 4, 8 compared to 5): ca. 25 fold; intramolecular electron transfer rate constant from the singlet state (keT) ([1]; based on φf≤0.008): ≥ 1e+10 s⁻¹; triplet-triplet absorption ([3]; in contrast to precursor 4): unable to detect any triplet-triplet absorption |
| CC(=O)OCC1=C2C(C)=C(I)C(C)=[N+]2[B-](F)(F)n2c(C)c(I)c(C)c21 [Compound 5, 8-Acetoxymethyl-2,6-diiodo-1,3,5,7-tetramethyl Pyrromethene Fluoroborate] | 2.21 | 550 | 572 | 0.02 ± 0.01 | 96000 | ca. 44 fold | ~42 fold | 625.0 ± 0.7 × 10^7 s^−1 | 582.0 ± 0.7 × 10^7 s^−1 | 12.5 ± 0.2 × 10^7 s^−1 | 3.95 ± 0.07 × 10^8 M^−1s^−1 | 17000 | 7.14 ± 0.04 × 10^6 s^−1 | 1.64 ± 0.02 × 10^4 s^−1 | 3.01 ± 0.01 × 10^9 M^−1s^−1 | 0.91 | −1.14 | 1.54 | −0.4 | 0.269 |  |
| CC1=C(Br)C(C)=[N+]2C1=C(C)c1c(C)c(Br)c(C)n1[B-]2(F)F [Compound 4, 2,6-dibromo-1,3,5,7,8-pentamethyl-pyrromethene fluoroborate] | 2.37 | 515 | 535 | 0.20 and 0.20 ± 0.02 | 79000 | ~4 fold | 3.1 fold | 55.3 ± 0.2 × 10^7 s^−1 | 44.2 ± 0.2 × 10^7 s^−1 | 11.0 ± 0.2 × 10^7 s^−1 | 1.29 ± 0.04 × 10^8 M^−1s^−1 | 27000 | 4.55 ± 0.03 × 10^6 s^−1 | 2.70 ± 0.02 × 10^4 s^−1 | 1.91 ± 0.02 × 10^9 M^−1s^−1 | 0.89 |  | 1.71 | −0.38 | 0.282 |  |
| CC1=C(I)C(C)=[N+]2C1=C(C)c1c(C)c(I)c(C)n1[B-]2(F)F [Compound 3, 2,6-diiodo-1,3,5,7,8-pentamethyl-pyrromethene fluoroborate] | 2.33 | 521 | 545 | 0.03 ± 0.01 | 83000 | 27 fold | ca. 27 fold | 476.2 ± 0.7 × 10^7 s^−1 | 463.0 ± 0.7 × 10^7 s^−1 | 13.1 ± 0.2 × 10^7 s^−1 | 1.20 ± 0.05 × 10^8 M^−1s^−1 | 17000 | 4.35 ± 0.02 × 10^6 s^−1 | 1.68 ± 0.02 × 10^4 s^−1 | 1.82 ± 0.03 × 10^9 M^−1s^−1 | 0.88 |  | 1.70 | −0.37 | 0.262 |  |
